From publication PMC11839646, “HPK1 kinase inhibitor: a sufficient approach to target HPK1 to modulate T cell activation in cancer immunotherapy compared with degraders” (Frontiers in Immunology, 2025)
Where two headings read alike, the source gives them in different places.

Tests used:
[1] = biological target: T1, HPK1 (Homo sapiens, UniProt Q92918); assay: HPK1 degradation in CD4+ and CD8+ T cells of human PBMCs (flow cytometry); format: cell-based; design: Compound 2 degraded HPK1 in CD4^+ and CD8^+ T cells in a concentration-dependent manner; host or cells: human PBMCs (CD4+ and CD8+ T cells) from healthy donors; settings: for HPK1 degradation at 1,000 nM / HPK1 degradation at high concentrations: CD4+ and CD8+ T cells in human PBMCs; for HPK1 degradation at 1,000 nM: 24 h, 1,000 nM; for HPK1 degradation at high concentrations: 24 h, ≥3,000 nM; for DC50: 24 h treatment, read-out: HPK1 degradation EC50
T1 sequence (Q92918 whole entry): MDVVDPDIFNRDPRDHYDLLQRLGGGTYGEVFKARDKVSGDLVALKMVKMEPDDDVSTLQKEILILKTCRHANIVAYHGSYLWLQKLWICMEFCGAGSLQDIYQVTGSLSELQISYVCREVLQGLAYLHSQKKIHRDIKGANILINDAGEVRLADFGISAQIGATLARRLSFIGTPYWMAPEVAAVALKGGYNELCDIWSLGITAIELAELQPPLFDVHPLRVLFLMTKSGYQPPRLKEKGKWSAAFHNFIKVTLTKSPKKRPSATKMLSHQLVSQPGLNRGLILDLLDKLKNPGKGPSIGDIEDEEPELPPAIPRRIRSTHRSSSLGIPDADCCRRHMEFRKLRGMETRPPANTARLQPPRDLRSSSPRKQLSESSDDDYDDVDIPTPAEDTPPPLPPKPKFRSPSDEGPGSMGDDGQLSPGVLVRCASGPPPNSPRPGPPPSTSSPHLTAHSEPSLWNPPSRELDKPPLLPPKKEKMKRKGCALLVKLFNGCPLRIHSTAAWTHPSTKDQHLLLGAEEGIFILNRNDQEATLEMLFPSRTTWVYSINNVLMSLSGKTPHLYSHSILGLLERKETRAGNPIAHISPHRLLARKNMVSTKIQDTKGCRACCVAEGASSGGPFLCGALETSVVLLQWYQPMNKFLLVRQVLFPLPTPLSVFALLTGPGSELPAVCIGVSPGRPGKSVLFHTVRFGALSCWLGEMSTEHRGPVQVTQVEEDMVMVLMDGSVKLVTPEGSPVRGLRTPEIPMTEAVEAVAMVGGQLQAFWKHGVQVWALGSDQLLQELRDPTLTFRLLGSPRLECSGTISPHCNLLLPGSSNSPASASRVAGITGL
Procedure: (§1) Jurkat cells (ATCC, Manassas, VA, USA) and human peripheral blood mononuclear cells (PBMCs) were cultured in RPMI-1640 medium (Thermo Fisher Scientific, Waltham, MA, USA) supplemented with 10% heat-inactivated fetal bovine serum (Thermo Fisher) and 1% penicillin–streptomycin (Thermo Fisher Scientific) at 37°C in a humidified incubator with 5% CO2. The density of Jurkat cells was adjusted to 1 × 10^6/mL 24 h before conducting the experiment. Cryopreserved human PBMCs were purchased from Oribiotech (Shanghai, China); they were freshly thawed and cultured overnight prior to performing the experiment.
(§2) Jurkat cells or human PBMCs were pretreated in triplicates or quadruplicates with dimethyl sulfoxide or compounds for 24 h. For p-SLP76-S376 analysis, the cells were activated for 30 min with OKT3. For granzyme B and perforin analysis of human PBMCs, ultra-high binding 96-well plates (Corning Inc., Corning, NY, USA) were precoated with OKT3 overnight at 4°C. Human PBMCs were pretreated in quadruplicates with dimethyl sulfoxide or compounds for 24 h. The cells were then activated for another 24 h with precoated OKT3, followed by 2 h treatment with Protein Transport Inhibitor Cocktail (Thermo Fisher). The stimulated cells were fixed with BD Phosflow™ Lyse/Fix buffer (BD Biosciences, San Diego, CA, USA), washed and permeabilized with BD Perm Buffer III (BD Biosciences), and subsequently stained with a fluorescence-conjugated antibody against HPK1 (E1C3L; Cell Signaling Technology), p-SLP76-S376 (E3G9U; Cell Signaling Technology), granzyme B (GB11, BioLegend, San Diego, CA, USA), perforin (dG9, BioLegend) and anti-human CD3 (SK7, BioLegend), CD4 (SK3, BioLegend) and CD8 (SK1, BioLegend) for primary T cells. This was followed by data acquisition and analysis with the BD FACSymphony™ A1 Cell Analyzer (BD Biosciences).

[2] = system: HepG2 cells; assay: Real-time cell mediated cytotoxicity assay (xCELLigence RTCA), PBMC killing of HepG2; format: cell-based; settings: PBMC:HepG2 5:1, compared to DMSO-pretreated PBMCs, up to 6 days post TCR stimulation
Procedure: For in vitro HepG2 cell killing, human PBMCs were pretreated in quadruplicates with dimethyl sulfoxide or compounds for 24 h, followed by stimulation by OKT3 for another 24 h. HepG2 cells were seeded at 2 × 10^4/well in a RTCA 96-well-E plate (Agilent Technologies, Sana Clara, CA, USA). 24 h after HepG2 seeding, the stimulated PBMCs were added at a PBMC: HepG2 cells ratio of 5:1. Target cell death was monitored using xCELLigence RTCA MP instrument (Agilent Technologies).

[3] = system: Jurkat cells; assay: IL-2 production by Jurkat cells stimulated with immobilized OKT3; format: cell-based, human; settings: Jurkat cells pretreated 24 h, immobilized OKT3 24 h
Procedure: as §1
Jurkat cells were seeded in triplicates into those plates for stimulation and incubated for 24 h. Alternatively, Jurkat cells were pretreated with various concentrations of the aforementioned compounds for 24 h prior to stimulation with aforementioned immobilized OKT3. For cytokine analysis of human PBMCs, the cells were seeded into U-bottomed 96-well plates (Corning Inc.) and treated with the compounds for 24 h prior to stimulation. Next, the cells were stimulated by co-culture with HEK293/OS8/PD-L1 cells in the U-bottomed 96-well plates for another 24 h. HEK293/OS8/PD-L1 is a HEK293 cell line edited to stably co-express human PD-L1 (programmed death ligand 1) and single chain fragment variable (scFv) of OKT3 fused with transmembrane and cytoplasmic domains of murine CD8α, as previously described ([21]). Interleukin 2 (IL-2) and interferon-gamma (IFN-γ) in the supernatant were detected using the HTRF Human IL-2 Detection Kit and AlphaLISA Biotin-Free Human IFNγ Detection Kit (both obtained from Revvity, Waltham, MA, USA) according to the instructions provided by the manufacturer. Data were acquired with PHERAstar FSX (BMG LABTECH Inc., Cary, NC, USA).

[4] = biological target: T1, HPK1; assay: Western blotting of TCR-induced signaling in human PBMCs after TCR crosslinking; format: cell-based; design: Compound 2 degraded HPK1 in CD4^+ and CD8^+ T cells in a concentration-dependent manner; host or cells: human PBMCs (CD4+ and CD8+ T cells) from healthy donors
Procedure: as §1
(§3) Jurkat cells were activated by anti-human CD3 (OKT3; 10 μg/mL, Thermo Fisher Scientific), while human peripheral blood cells were activated through TCR crosslinking by biotinylated OKT3 and streptavidin (7.5 μg/mL; Thermo Fisher Scientific). The cells were lysed at various time points post stimulation, and the lysate was denatured. The obtained samples were subjected to electrophoresis, and the separated proteins were electro-transferred onto a nitrocellulose membrane. Thereafter, the membranes were incubated with antibodies against HPK1 (E1C3L), phosphorylated SLP76-S376 (p-SLP76-S376; D7S1K), SLP76 (D1R1A), p-ERK1/2-T202/Y204 (D13.14.4E), p-PLCγ1-Y783 (polyclonal), PLCγ1 (D9H10), and glyceraldehyde-3-phosphate dehydrogenase (GAPDH; D4C6R). All antibodies used for immunoblotting were purchased from Cell Signaling Technology (Danvers, MA, USA).

[5] = biological target: T1, HPK1; assay: HPK1 degradation in Jurkat cells (intracellular staining, flow cytometry); format: cell-based; design: Compound 2 degraded HPK1 in CD4^+ and CD8^+ T cells in a concentration-dependent manner; host or cells: human PBMCs (CD4+ and CD8+ T cells) from healthy donors; settings: for HPK1 degradation at high concentrations: 24 h treatment, ≥1,000 nM
Procedure: as §1, §2

[6] = system: phosphorylation of SLP76-S376; assay: TCR-induced p-SLP76-S376 in CD4+ and CD8+ T cells of human PBMCs (flow cytometry); format: cell-based; settings: for TCR-induced phosphorylation on SLP76-S376: 24 h pretreatment
Procedure: as §1, §2

[7] = system: phosphorylation of SLP76-S376; assay: TCR-induced p-SLP76-S376 in Jurkat cells after OKT3 stimulation (flow cytometry); format: cell-based; settings: Homo sapiens; Jurkat cells pretreated 24 h, OKT3 stimulation 30 min
Procedure: as §1, §2

[8] = biological target: T1, HPK1; assay: Western blotting of TCR-induced signaling in HKO-EV, HKO-HPK1.WT and HKO-HPK1.K46E Jurkat cells; format: cell-based; design: expressed in transfected cells; host or cells: HPK1-knockout Jurkat single clone (EdiGene), lentiviral transduction, blasticidin-selected pool; settings: compound pretreatment, OKT3 stimulation; for SLP76-S376 phosphorylation (Western blot): HKO-HPK1.WT Jurkat cells; for ERK1/2 phosphorylation (Western blot): HKO-HPK1.WT vs HKO-EV and HKO-HPK1.K46E Jurkat cells
Source text: The Jurkat line with a homozygous knockout of HPK1 (HKO) single clone was purchased from EdiGene (Beijing, China). HKO-EV (HKO empty vector control), HKO-HPK1.WT (HKO overexpressing wildtype HPK1), and HKO-HPK1.K46E (HKO overexpressing kinase-dead HPK1) Jurkat pools were generated by lenti-vector transduction. In brief, the coding sequences of different HPK1 mutants were inserted into a FG12-BSD plasmid with the human phosphoglycerate kinase (hPGK) promoter (GenScript, Nanjing, China). Thereafter, 293T cells (ATCC) were transfected with those plasmids together with lentivirus packing plasmids pMD2.G and psPAX2. The culture medium containing virus was collected and used to infect HKO cells. Blasticidin 10 µg/mL (InvivoGen, San Diego, CA, USA) was used for the selection of infected cells. HPK1-knockin Jurkat cells (HPK1 K46*) and kinase-inactivated HPK1-knockin Jurkat cells (HPK1 K46E) were produced by introducing a Lys46Ter mutation or a Lys46Glu mutation to the HPK1 gene, respectively.
as §3

[9] = system: CD8+ T cells of human PBMCs; assay: Granzyme B levels in CD8+ T cells of human PBMCs after OKT3 stimulation; format: cell-based; settings: human PBMCs pretreated 24 h, OKT3 stimulation 24 h
Procedure: as §2

[10] = system: human PBMCs; assay: IL-2 and IFN-γ production by human PBMCs co-cultured with HEK293/OS8/PD-L1; format: cell-based; settings: human PBMCs pretreated 24 h, co-culture with HEK293/OS8/PD-L1 24 h
Procedure: as §1
Jurkat cells were seeded in triplicates into those plates for stimulation and incubated for 24 h. Alternatively, Jurkat cells were pretreated with various concentrations of the aforementioned compounds for 24 h prior to stimulation with aforementioned immobilized OKT3. For cytokine analysis of human PBMCs, the cells were seeded into U-bottomed 96-well plates (Corning Inc.) and treated with the compounds for 24 h prior to stimulation. […] Interleukin 2 (IL-2) and interferon-gamma (IFN-γ) in the supernatant were detected using the HTRF Human IL-2 Detection Kit and AlphaLISA Biotin-Free Human IFNγ Detection Kit (both obtained from Revvity, Waltham, MA, USA) according to the instructions provided by the manufacturer. […]

[11] = 300 nM and 1,000 nM pretreatment

Row | Structure (SMILES) | HPK1 degradation at 1,000 nM [1] | HPK1 degradation at high concentrations [1] | Cytotoxicity of pretreated PBMCs against HepG2 cells [2] | IL-2 production EC50 relative to Compound 2 [3] | IL-2 production, maximal level [3] | HPK1 levels (Western blot) [4, 11] | SLP76-S376 phosphorylation (Western blot) [4, 11] | HPK1 degradation at high concentrations [5] | TCR-induced phosphorylation on SLP76-S376 [6] | IC50 [7] [µM] | SLP76-S376 phosphorylation (Western blot) [8] | ERK1/2 phosphorylation (Western blot) [8] | Granzyme B levels in CD8+ T cells [9] | also measured
1 | Cc1cc(-c2cnc3[nH]cc(-c4ccc(C(=O)N(C)C)cc4)c3c2)cc2c1CN(CCC(=O)N1CCN(c3ccc(N4CCC(=O)N(C)C4=O)cc3)CC1)CC2 [Compound 3, N,N-dimethyl-4-(5-(8-methyl-2-(3-(4-(4-(3-methyl-2,4-dioxotetrahydropyrimidin-1(2H)-yl)phenyl)piperazin-1-yl)-3-oxopropyl)-1,2,3,4-tetrahydroisoquinolin-6-yl)-1H-pyrrolo[2,3-b]pyridin-3-yl)benzamide] | did not significantly degrade HPK1 | limited HPK1 degradation | enhanced HepG2 killing ability of PBMCs, but to a less extent than Compound 1 or Compound 2 | higher | comparable with that induced by Compound 2 | without significantly affecting HPK1 levels | reduced or almost completely attenuated SLP76-S376 phosphorylation | resulted in the degradation of HPK1 | effectively reduced | 0.12 | attenuated SLP76-S376 phosphorylation | enhanced ERK1/2 phosphorylation only in HKO-HPK1.WT Jurkat cells | – | –
2 | Cc1cc(-c2cnc3[nH]cc(-c4ccc(C(=O)N(C)C)cc4)c3c2)cc2c1CN(CCC(=O)N1CCN(c3ccc(N4CCC(=O)NC4=O)cc3)CC1)CC2 [Compound 2, 4-(5-(2-(3-(4-(4-(2,4-dioxotetrahydropyrimidin-1(2H)-yl)phenyl)piperazin-1-yl)-3-oxopropyl)-8-methyl-1,2,3,4-tetrahydroisoquinolin-6-yl)-1H-pyrrolo[2,3-b]pyridin-3-yl)-N,N-dimethylbenzamide] | – | – | did not exhibited stronger cytotoxicity against HepG2 cells | – | – | – | – | – | effectively reduced | ~0.02 | attenuated SLP76-S376 phosphorylation | enhanced ERK1/2 phosphorylation only in HKO-HPK1.WT Jurkat cells | enhanced granzyme B levels | DC50 ([1]; CD4+ T cells in human PBMCs): 0.0115 µM; DC50 ([1]; CD8+ T cells in human PBMCs): 0.026 µM; EC50 ([3]; Homo sapiens): ~0.2 µM; Maximal enhancement of TCR-induced IL-2 and IFN-γ production [10]: not stronger than that after treatment with Compound 1; HPK1 levels (Western blot) ([4]; 300 nM pretreatment): almost complete degradation of HPK1; SLP76-S376 phosphorylation (Western blot) ([4]; 300 nM pretreatment): attenuation of SLP76-S376 phosphorylation; HPK1 degradation, time course ([5]; 1 μM, within 24 h): effectively degraded HPK1; IC50 for SLP76-S376 phosphorylation relative to the other two compounds [6]: lower in both populations
3 | Cc1cc(-c2cnc3[nH]cc(-c4ccc(C(=O)N(C)C)cc4)c3c2)cc2c1CN(C)CC2 [Compound 1, 4-(5-(2,8-dimethyl-1,2,3,4-tetrahydroisoquinolin-6-yl)-1H-pyrrolo[2,3-b]pyridin-3-yl)-N,N-dimethylbenzamide] | did not significantly degrade HPK1 | limited HPK1 degradation | – | higher | comparable with that induced by Compound 2 | without significantly affecting HPK1 levels | reduced or almost completely attenuated SLP76-S376 phosphorylation | resulted in the degradation of HPK1 | effectively reduced | 0.12 | attenuated SLP76-S376 phosphorylation | enhanced ERK1/2 phosphorylation only in HKO-HPK1.WT Jurkat cells | enhanced granzyme B levels | –
